Like-named read-outs stand apart in the source and are kept apart here.
Legend:
Assay type in all cases: in vivo
[1] = tested on: Myzus persicae (Green Peach Aphid); assay: Myzus persicae (Green Peach Aphid): feeding/contact activity; conditions: foliar, 144 h
Description: Myzus persicae (Green Peach Aphid): Feeding/Contact Activity
Sunflower leaf discs were placed onto agar in a 24-well microtiter plate and sprayed with aqueous test solutions prepared from 10,000 ppm DMSO stock solutions. After drying, the leaf discs were infested with an aphid population of mixed ages. The samples were assessed for mortality 6 days after infestation.

[2] = tested on: Plutella xylostella (Diamond Back Moth); assay: Plutella xylostella (Diamond Back Moth): feeding/contact activity; conditions: 120 h
Description: Plutella xylostella (Diamond Back Moth): Feeding/Contact Activity
24-well microtiter plates with artificial diet were treated with aqueous test solutions prepared from 10′000 ppm DMSO stock solutions by pipetting. After drying, the plates were infested with L2 larvae (10 to 15 per well). The samples were assessed for mortality 5 days after infestation.

[3] = tested on: Thrips tabaci (Onion Thrips); assay: Thrips tabaci (Onion Thrips): feeding/contact activity; conditions: foliar, 144 h
Description: Thrips tabaci (Onion Thrips): Feeding/Contact Activity
Sunflower leaf discs were placed on agar in 24-well microtiter plates and sprayed with aqueous test solutions prepared from 10′000 ppm DMSO stock solutions. After drying the leaf discs were infested with a thrips population of mixed ages. The samples were assessed for mortality 6 days after infestation.

[4] = tested on: Diabrotica balteata (Corn root worm); assay: Diabrotica balteata (Corn root worm) mortality test on sprayed maize sprouts; conditions: 96 h
Description: Diabrotica balteata (Corn root worm):
Maize sprouts placed onto an agar layer in 24-well microtiter plates were treated with aqueous test solutions prepared from 10′000 ppm DMSO stock solutions by spraying. After drying, the plates were infested with L2 larvae (6 to 10 per well). The samples were assessed for mortality 4 days after infestation.

[5] = tested on: Tetranychus urticae (Two-Spotted Spider Mite); assay: Tetranychus urticae (Two-Spotted Spider Mite): feeding/contact activity; conditions: foliar, 192 h, read-out: mortality on mixed population (mobile stages)
Description: Tetranychus urticae (Two-Spotted Spider Mite): Feeding/Contact Activity
Bean leaf discs on agar in 24-well microtiter plates were sprayed with aqueous test solutions prepared from 10′000 ppm DMSO stock solutions. After drying the leaf discs were infested with a mite population of mixed ages. The samples were assessed for mortality on mixed population (mobile stages) 8 days after infestation.

[6] = tested on: Spodoptera littoralis (Egyptian Cotton Leaf Worm); assay: Spodoptera littoralis (Egyptian Cotton Leaf Worm): feeding/contact activity; conditions: foliar, 72 h
Description: Spodoptera littoralis (Egyptian Cotton Leaf Worm): Feeding/Contact Activity
Cotton leaf discs were placed onto agar in 24-well microtiter plates and sprayed with aqueous test solutions prepared from 10′000 ppm DMSO stock solutions. After drying the leaf discs were infested with five L1 larvae. The samples were assessed for mortality 3 days after infestation.

[7] = tested on: Euschistus heros (Neotropical Brown Stink Bug); assay: Euschistus heros (Neotropical Brown Stink Bug): feeding/contact activity; conditions: 120 h
Description: Euschistus heros (Neotropical Brown Stink Bug): Feeding/Contact Activity
Soybean leaves on agar in 24-well microtiter plates were sprayed with aqueous test solutions prepared from 10,000 ppm DMSO stock solutions. After drying the leaves were infested with N2 nymphs. The samples were assessed for mortality 5 days after infestation.

[8] = application rate 200 ppm, sunflower leaf discs sprayed, aphid population of mixed ages, assessed 6 days after infestation, read-out: mortality
[9] = application rate 200 ppm, artificial diet treated by pipetting, L2 larvae, assessed 5 days after infestation, read-out: mortality
[10] = application rate 200 ppm, sunflower leaf discs sprayed, thrips population of mixed ages, assessed 6 days after infestation, read-out: mortality
[11] = application rate 200 ppm, maize sprouts sprayed, L2 larvae, assessed 4 days after infestation, read-out: mortality
[12] = application rate 200 ppm, bean leaf discs sprayed, mite population of mixed ages, assessed 8 days after infestation
[13] = application rate 200 ppm, cotton leaf discs sprayed, L1 larvae, assessed 3 days after infestation, read-out: mortality
[14] = application rate 200 ppm, soybean leaves sprayed, N2 nymphs, assessed 5 days after infestation, read-out: mortality

Measured: mortality at 200 ppm

CCC(=O)N(C(=O)c1cc(-c2cnn(-c3c(OC(F)F)c(C(F)(F)C(F)(F)F)nn3C)c2)cnc1Cl)C1(C#N)CC1 [Compound 20, 2-chloro-N-(1-cyanocyclopropyl)-5-[1-[4-(difluoromethoxy)-2-methyl-5-(1,1,2,2,2-pentafluoroethyl)pyrazol-3-yl]pyrazol-4-yl]-N-propanoyl-pyridine-3-carboxamide]
≥ 80%: [1]; [8] | [2]; [9] | [3]; [10] | [4]; [11] | [5]; [12] | [6]; [13] | [7]; [14]

Cn1nc(C(F)(F)C(F)(F)F)c(OC(F)F)c1-n1cc(-c2cnc(Cl)c(C(=O)N(CC#N)C3(C#N)CC3)c2)cn1 [Compound 15, 2-chloro-N-(1-cyanocyclopropyl)-N-(cyanomethyl)-5-[1-[4-(difluoromethoxy)-2-methyl-5-(1,1,2,2,2-pentafluoroethyl)pyrazol-3-yl]pyrazol-4-yl]pyridine-3-carboxamide]
≥ 80%: [1]; [8] | [2]; [9] | [3]; [10] | [4]; [11] | [5]; [12] | [6]; [13] | [7]; [14]

CC(C)OC(=O)N(C(=O)c1cc(-c2cnn(-c3c(OC(F)F)c(C(F)(F)C(F)(F)F)nn3C)c2)ccc1Cl)C1(C#N)CC1 [Compound 5, isopropyl N-[2-chloro-5-[1-[4-(difluoromethoxy)-2-methyl-5-(1,1,2,2,2-pentafluoroethyl)pyrazol-3-yl]pyrazol-4-yl]benzoyl]-N-(1-cyanocyclopropyl)carbamate]
≥ 80%: [1] | [2] | [3] | [4] | [5] | [6] | [7]; in Glycine max

Cn1nc(C(F)(F)C(F)(F)F)c(OC(F)F)c1-n1cc(-c2ccc(Cl)c(C(=O)N(CC3CC3)C3(C#N)CC3)c2)cn1 [Compound 9, 2-chloro-N-(1-cyanocyclopropyl)-N-(cyclopropylmethyl)-5-[1-[4-(difluoromethoxy)-2-methyl-5-(1,1,2,2,2-pentafluoroethyl)pyrazol-3-yl]pyrazol-4-yl]benzamide]
≥ 80%: [1]; [8] | [2]; [9] | [3]; [10] | [4]; [11] | [5]; [12] | [6]; [13] | [7]; [14]

Cn1nc(C(F)(F)C(F)(F)F)c(OC(F)F)c1-n1cc(-c2cnc(Cl)c(C(=O)N(C(=O)C3CC3)C3(C#N)CC3)c2)cn1 [Compound 19, 2-chloro-N-(1-cyanocyclopropyl)-N-(cyclopropanecarbonyl)-5-[1-[4-(difluoromethoxy)-2-methyl-5-(1,1,2,2,2-pentafluoroethyl)pyrazol-3-yl]pyrazol-4-yl]pyridine-3-carboxamide]
≥ 80%: [1]; [8] | [2]; [9] | [3]; [10] | [4]; [11] | [5]; [12] | [6]; [13] | [7]; [14]
